According to ChEMBL document CHEMBL1128621, “Design and synthesis of nonpeptidal endothelin receptor antagonists based on the structure of a cyclic pentapeptide” (Bioorg Med Chem Lett, 1995):
Where a SMILES comes first, the peptide text is derived from it. [ ]: non-standard residue; d: D form.

Legend:
Endothelin-1 receptor = molecular target: T1, Endothelin-1 receptor (Homo sapiens, UniProt P25101); assay: Affinity against ET A receptor
T1 sequence (P25101 whole entry): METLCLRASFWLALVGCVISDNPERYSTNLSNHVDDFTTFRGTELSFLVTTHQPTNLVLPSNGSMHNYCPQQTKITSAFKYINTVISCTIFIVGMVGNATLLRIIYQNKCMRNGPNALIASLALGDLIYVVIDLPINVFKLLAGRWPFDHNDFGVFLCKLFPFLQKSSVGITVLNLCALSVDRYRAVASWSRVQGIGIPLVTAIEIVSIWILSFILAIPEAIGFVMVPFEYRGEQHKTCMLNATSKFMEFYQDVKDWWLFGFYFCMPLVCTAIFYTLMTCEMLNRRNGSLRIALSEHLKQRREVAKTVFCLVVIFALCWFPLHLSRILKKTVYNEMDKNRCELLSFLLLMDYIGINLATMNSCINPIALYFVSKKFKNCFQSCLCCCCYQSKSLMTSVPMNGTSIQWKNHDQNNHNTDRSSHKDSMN

[1] = molecular target: T2, Endothelin receptor type B (Rattus norvegicus, UniProt P21451); assay: Affinity against ET B receptor
T2 sequence (P21451 whole entry): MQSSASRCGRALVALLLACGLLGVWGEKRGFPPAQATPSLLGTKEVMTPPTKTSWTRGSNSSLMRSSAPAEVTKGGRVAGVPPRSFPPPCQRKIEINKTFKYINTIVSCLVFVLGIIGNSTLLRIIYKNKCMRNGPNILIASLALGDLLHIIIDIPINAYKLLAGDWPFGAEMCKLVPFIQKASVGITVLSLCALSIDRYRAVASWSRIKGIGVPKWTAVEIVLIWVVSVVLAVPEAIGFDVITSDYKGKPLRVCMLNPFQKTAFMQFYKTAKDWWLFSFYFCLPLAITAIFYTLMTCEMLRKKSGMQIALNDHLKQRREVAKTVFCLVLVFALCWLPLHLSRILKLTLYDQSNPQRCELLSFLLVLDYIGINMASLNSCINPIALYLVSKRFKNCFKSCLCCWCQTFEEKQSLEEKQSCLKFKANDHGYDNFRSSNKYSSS

SMILES	Ki (Endothelin-1 receptor)	Ki [1]
CCCN1c2ccccc2C(=O)N(CC(=O)O)c2cc(Cc3c[nH]c4ccccc34)ccc21	41 µM	12 µM
O=C(O)CN1C(=O)c2ccccc2Nc2ccc(OCc3ccccc3)cc21	109 µM	> 100 µM
CC(C)C[C@@H]1NC(=O)[C@@H](C(C)C)NC(=O)[C@@H]2CCCN2C(=O)[C@@H](CC(=O)O)NC(=O)[C@@H](Cc2cccc3ccccc23)NC1=O	0.224 µM	
CCCN1c2ccccc2C(=O)N(CC(=O)O)c2cc(NC(=O)Cc3c[nH]c4ccccc34)ccc21	14 µM	7 µM
CCCN1c2ccccc2C(=O)N(CC(=O)O)c2cc(NC(=O)c3c[nH]c4ccccc34)ccc21	80 µM	11 µM
CCCN1c2ccccc2C(=O)N(CC(=O)O)c2cc(OCc3cccc4ccccc34)ccc21	7 µM	60 µM
CCCN1c2ccccc2C(=O)N(CC(=O)O)c2cc(NC(=O)c3cccc4ccccc34)ccc21	83 µM	
CC(C)C[C@@H]1NC(=O)[C@@H](C(C)C)NC(=O)[C@@H]2CCCN2C(=O)[C@@H](CC(=O)O)NC(=O)[C@@H](Cc2c[nH]c3ccccc23)NC1=O [BQ-123] (cyclo(L[dW][dD]P[dV]))	0.018 µM	
O=C(O)CN1C(=O)c2ccccc2Nc2ccc(OCc3cccc4ccccc34)cc21	28 µM	8 µM
CC(C)C[C@@H]1NC(=O)[C@@H](C(C)C)NC(=O)[C@@H]2CCCN2C(=O)[C@@H](CC(=O)O)NC(=O)[C@@H](Cc2ccccc2)NC1=O	2.4 µM	
CCCN1c2ccccc2C(=O)N(CC(=O)O)c2cc(NCc3cccc4ccccc34)ccc21	17 µM	9 µM
CCCN1c2ccccc2C(=O)N(CC(=O)O)c2cc(NC(=O)c3cc4ccccc4[nH]3)ccc21	33 µM	6 µM
